These results are taken from PubChem BioAssay (NCI).

Among the test systems are TK-10 renal; CCRF-CEM leukemia; OVCAR-8 ovarian; 786-0 renal; NCI-H226 lung; A498 renal; DU-145 prostate; HOP-92 NSCLC; SK-MEL-2 melanoma; HOP-62 NSCLC.
What all share (assay): inhibition of tumour cell growth, NCI panel, 48 h

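Interpolation was linear, between the two tested concentrations surrounding the appropriate level; five concentrations were tested over 48 hours in 96-well plates. GI50 is the concentration that inhibits growth by half. TGI marks complete inhibition of growth.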

For the compound `COc1ccc(C(=O)c2cc3c(N)c(C(=O)Nc4cccc(Cl)c4)sc3nc2C)cc1`, the GI50 was > 33.3 µM in the assay with TK-10 renal; 1.2 µM with CCRF-CEM leukemia; 1.89 µM in the assay with OVCAR-8 ovarian; 2.67 µM in the assay with 786-0 renal; 16 µM in the assay with NCI-H226 lung; 0.821 µM with A498 renal. Moreover, the GI50 in the assay on DU-145 prostate was 1.26 µM; in the assay with HOP-92 NSCLC, 30.7 µM; in the assay with SK-MEL-2 melanoma, 11.2 µM; in the assay with HOP-62 NSCLC, 2.24 µM. The TGI in the assay with TK-10 renal, in the assay on CCRF-CEM leukemia, in the assay with OVCAR-8 ovarian, with 786-0 renal, in the assay with NCI-H226 lung and with A498 renal was > 33.3 µM each time. The TGI in the assay on DU-145 prostate, with HOP-92 NSCLC, in the assay on SK-MEL-2 melanoma and with HOP-62 NSCLC was > 33.3 µM throughout.

For `CC(C)Oc1cc(OCC(=O)O)cc(C(=O)N(CCC(N)=O)C(=O)Nc2ccc(C(=O)O)cc2OC(C)C)c1`, the GI50 in the assay on TK-10 renal, in the assay on CCRF-CEM leukemia, in the assay on OVCAR-8 ovarian, in the assay on 786-0 renal, in the assay on NCI-H226 lung and with A498 renal was > 100 µM in each case. The GI50 with DU-145 prostate, with HOP-92 NSCLC, with SK-MEL-2 melanoma and in the assay with HOP-62 NSCLC was > 100 µM in each case. Also, the TGI in the assay with TK-10 renal, in the assay on CCRF-CEM leukemia, in the assay on OVCAR-8 ovarian, in the assay with 786-0 renal, in the assay on NCI-H226 lung and with A498 renal was > 100 µM throughout. Further, the TGI with DU-145 prostate, in the assay on HOP-92 NSCLC, with SK-MEL-2 melanoma and in the assay on HOP-62 NSCLC was > 100 µM each time.

For `COc1c2occc2c(OC)c2c(=O)c(S(=O)(=O)NC(=O)Nc3ccc(Cl)cc3)coc12`, the TGI with TK-10 renal, with CCRF-CEM leukemia, with OVCAR-8 ovarian, in the assay with 786-0 renal, in the assay with NCI-H226 lung and with A498 renal was > 10 µM each time. Moreover, the TGI with DU-145 prostate, with HOP-92 NSCLC, with SK-MEL-2 melanoma and with HOP-62 NSCLC was > 10 µM throughout.

Take `C=C1C(=O)O[C@@H]2[C@@H]3O[C@@](C)(CC/C=C(\C)CCC[C@@H]2C)[C@H](O)C[C@@H]13`: the GI50 in the assay with TK-10 renal is 1.89 µM; with CCRF-CEM leukemia, 3.01 µM; in the assay with OVCAR-8 ovarian it was 1.76 µM; in the assay on 786-0 renal, 7.02 µM; in the assay with NCI-H226 lung, 12.5 µM; with A498 renal, 8.87 µM. The GI50 in the assay with HOP-92 NSCLC is 1.7 µM; with SK-MEL-2 melanoma it was 2.41 µM. The TGI stood at 3.46 µM in the assay on TK-10 renal; 21.3 µM in the assay on CCRF-CEM leukemia; 5.85 µM in the assay on OVCAR-8 ovarian; 20.3 µM with 786-0 renal; 26.3 µM in the assay with NCI-H226 lung; 21.3 µM in the assay on A498 renal. Further, the TGI in the assay with DU-145 prostate was 19.4 µM; with HOP-92 NSCLC, 4.58 µM; in the assay on SK-MEL-2 melanoma it was 4.85 µM; with HOP-62 NSCLC, 24 µM.

Consider `COc1cc(-c2cc(-c3ccc(N(C)C)cc3)nc(N3CCC(O)CC3)c2C#N)cc(OC)c1OC`, for which the GI50 in the assay with TK-10 renal was 1.81 µM; in the assay with CCRF-CEM leukemia, 0.598 µM; with OVCAR-8 ovarian, 0.485 µM; in the assay on 786-0 renal it was 0.399 µM; in the assay with NCI-H226 lung it was 0.717 µM; in the assay with A498 renal it was 1.19 µM. Besides, the GI50 was 0.853 µM with DU-145 prostate, 0.182 µM in the assay with HOP-92 NSCLC, 0.37 µM in the assay on SK-MEL-2 melanoma and 0.953 µM in the assay on HOP-62 NSCLC. Moreover, the TGI is 15.7 µM in the assay on TK-10 renal; > 100 µM in the assay with CCRF-CEM leukemia; > 45.7 µM in the assay with OVCAR-8 ovarian; > 100 µM with 786-0 renal; 19.1 µM in the assay on A498 renal; > 79.6 µM in the assay on DU-145 prostate. For the same compound, the TGI in the assay with HOP-92 NSCLC stood at 0.788 µM; with SK-MEL-2 melanoma, 1.07 µM; with HOP-62 NSCLC, 24.3 µM.

As to `CCCCc1ccc2nc(NC(=O)OC)[nH]c2c1`, the GI50 in the assay with TK-10 renal is 0.325 µM; with CCRF-CEM leukemia, 0.0342 µM; in the assay with OVCAR-8 ovarian, 0.0837 µM; in the assay on 786-0 renal, 0.0613 µM; in the assay with NCI-H226 lung it was 0.0429 µM; in the assay with A498 renal, 0.04 µM. Further, the GI50 was 0.0406 µM with DU-145 prostate, 0.697 µM in the assay on HOP-92 NSCLC, 0.789 µM in the assay with SK-MEL-2 melanoma and 0.126 µM with HOP-62 NSCLC. The TGI in the assay on TK-10 renal is 29.9 µM; with OVCAR-8 ovarian, > 52.9 µM; in the assay on 786-0 renal it was 29.3 µM; in the assay on NCI-H226 lung it was 3.32 µM; in the assay on A498 renal it was 0.996 µM; with DU-145 prostate, 0.278 µM. The TGI was > 63 µM in the assay with HOP-92 NSCLC, > 62.1 µM in the assay on SK-MEL-2 melanoma and 26.6 µM in the assay with HOP-62 NSCLC.
